Reference: patent US20160266153A1, “I[…] PREGABALIN” (Randox Laboratories Limited, priority 2015, published 2016)
Converted amounts (≈) assume the structure as drawn.

What was measured:
[1] = test system: antibody RS2845 (raised against Immunogen II); test: Competitive ELISA: HRP tracer (Tracer 1) versus pregabalin or potential cross-reactants for binding sites of polyclonal antibody RS2845; details: for % Cross-Reactivity: % CR = IC50 pregabalin/IC50 CR x 100, cross-reactants assessed at 5 μg/ml, (S) pregabalin as calibrator; for IC50 (standard concentration which produces 50% B/B0): antibody RS2845 coated at 5 μg/ml, Tracer 1, (S) enantiomer of pregabalin as calibrator
Experimental: The antibody titre is evaluated by coating a microtitre plate (Thermo Fisher Scientific NUNC, 468667) with antibody (125 μl/well) in coating buffer (10 mM Tris pH 8.5) at 37° C. for 2 hours. The plate is then washed 4 times over 10 minutes with working strength mixture of Tris-Buffered Saline and Tween 20 (TBST). 50 μl of sample/standard (pregabalin) is added to the appropriate wells in triplicate, followed by 75 μl of hapten-HRP conjugate and incubated at 25° C. for 1 hour. The plate is then washed and 125 μl of TMB (Randox Laboratories, 4380-15) added to each well and left at room temperature for 20 mins in the dark. The reaction is stopped using 125 μl of 0.2 M sulphuric acid. The absorbances are read at 450 nm with an ELISA microplate reader (BIO-TEK Instruments, Elx800) and the means calculated. Antibody sensitivity can then be determined.
IgG was extracted from serum from the immunized animal the using ammonium sulphate/caprylic acid precipitation and the purified antibody was immobilised on a 96 well ELISA plate at 5 μg/ml in 10 mM TRIS buffer, pH 8.5 overnight at 4° C. The assay was based on competition for binding sites of a polyclonal antibody between HRP tracer and pregabalin or potential cross-reactants. The plate was washed (×3) with TBST and the calibrator (pregabalin) or potential cross reactants added (50 μl per well), followed by HRP tracer (75 μl/well) to the appropriate wells. The plates were then incubated for 60 minutes at 25° C. They were then subjected to 2 quick wash cycles using TBST, followed by 4×2 minute wash cycles. 125 μL of signal 25 (TMB) was then added to each well for 20 mins at room temperature in the dark. The reaction was stopped by the addition of 125 μl of 0.2 M Sulphuric Acid per well and the plates read immediately at 450 nm. Calibration curves were generated and these were used to determine the sensitivity and specificity of the immunoassay for pregabalin and potential cross-reactants. The data was inputted to a computer program called ‘KC Junior’ (Biotek). […] This program is used to calculate the IC50 values by dividing the 0 ng/ml optical density (OD) value by 2 and obtaining the concentration value from the curve for this OD.
wherein % CR is the percentage cross-reactivity, IC50 pregabalin is the concentration of pregabalin which causes 50% displacement of signal and IC50 CR is the concentration of potential cross-reactant that causes 50% displacement of signal.
The antibody (RS2845) used to generate the data in the tables below was raised from Immunogen II (Example 9) and the HRP tracer was prepared as in Example 10 (Tracer 1).

[2] = in vivo; cited from earlier work

Row | Compound | % Cross-Reactivity [1] | further results
1 | CC(C)CC(CN)CC(=O)O (centres unmarked) [Pregabalin, 3-(aminomethyl)-5-methylhexanoic acid] | 100% | IC50 (standard concentration which produces 50% B/B0) [1]: 0.266 ng/mL (≈ 1.67 nM); IC50 (standard concentration which produces 50% B/B0) ([1]; listed as pregabalin): about 0.266 ng/ml; B/B0 ([1]; pregabalin 0.02 ng/ml): 76%; B/B0 ([1]; pregabalin 0.08 ng/ml): 52%; B/B0 ([1]; pregabalin 0.31 ng/ml): 28%; B/B0 ([1]; pregabalin 1.25 ng/ml): 14%; B/B0 ([1]; pregabalin 5.00 ng/ml): 7%; Dose excreted unchanged in the urine [2]: about 98%; Metabolism [2]: negligible metabolism
2 | NC(=O)N1c2ccccc2C=Cc2ccccc21 [Carbamazepine] | <1% | –
3 | NCCc1c[nH]c2ccc(O)cc12 [Serotonin] | <1% | –
4 | CC1(C)O[C@@H]2[C@@H](CO[C@@]3(COS(N)(=O)=O)OC(C)(C)O[C@@H]23)O1 [Topiramate] | <1% | –
5 | CNC[C@H](CC(=O)O)CC(C)C [N-methylpregabalin, N-methyl pregabalin] | <1% | –
6 | CC(C)(C)C(O)/C=C/c1ccc2c(c1)OCO2 (centres unmarked) [Stiripentol] | <1% | –
7 | CC[C@@H](C(N)=O)N1CCCC1=O [Levetiracetam] | <1% | –
8 | N[C@@H](CCC(=O)O)C(=O)O [L-Glutamic Acid] | <1% | –
9 | NC(=O)OCC(COC(N)=O)c1ccccc1 [Felbamate] | <1% | –
10 | CCCC(CCC)C(=O)O [Valproic acid] | <1% | –
11 | N[C@H](CCC(=O)O)C(=O)O [D-Glutamic Acid] | <1% | –
12 | Cc1ccsc1C(=CCCN1CCC[C@@H](C(=O)O)C1)c1sccc1C [Tiagabine] | <1% | –
13 | CCC(C)CC(C)N (centres unmarked) [1,3-dimethylamylamine (DMAA), 1,3-dimethylamylamine] | 2.2% | –
14 | NCC1(CC(=O)O)CCCCC1 [Gabapentin] | <1% | –
15 | NCCCC(=O)O [Gamma-aminobutyric acid] | <1% | –
16 | COC[C@@H](NC(C)=O)C(=O)NCc1ccccc1 [Lacosamide] | <1% | –
17 | C=CC(N)CCC(=O)O (centres unmarked) [Vigabatrin] | <1% | –
